Marks after values point to notes of the source that are not given here.
Tests used:
[1] = test system: cerebral ischemia/reperfusion injury in mice; assay: focal cerebral ischemia reperfusion injury model in mice (suture method), TTC infarction area; type: in vivo; conditions: ischemia 2 h, reperfusion 24 h
Description: Focal cerebral ischemia reperfusion injury model is made in mice by using suture method, being ischemia for 2 h, then reperfusing for 24 h, and it proves that piperphentonamine hydrochloride has protective effect on ischemia-reperfusion cerebral injury.
Mouse is anesthetized by injecting 10% chloral hydrate (350 mg/kg) in intraperitoneal, being intravenously administered 1 mg/kg, 5 mg/kg piperphentonamine hydrochloride or 20 u/kg coenzyme A, (COA), making the cerebral artery ischemia like as the method of example 6. Pulling out nylon thread from the internal carotid artery after the operation in 2 hours, until the end of the nylon thread is at bifurcation of the common carotid artery. Reperfusing for 24 hours. Except for not inserting a thread, the rest of steps for the false operation group are same as the above-mentioned. After reperfusion for 24 h, decapitating and taking the brain of survived mice, rapidly putting in −20° C. freezer for 5 min, then removing, quickly cutting coronal slices of 2.0 mm thickness from forward to back on the operating table, putting the slices in phosphate buffer solution with 1% TTC immediately, incubating for 30 min in avoiding light at room temperature. Flip brain slices to make them touch staining solution uniformly every 10 minute, and scanning and observing the dyeing results.
The local cerebral ischemia model of mice was established by using thread bolt method, to validate that piperphentonamine acetate has protective effect on experimental cerebral ischemia animal.

[2] = test system: cerebral hemorrhage in rats induced by collagenase; assay: ICH model induced by collagenase: NE in brain tissue by ELISA; type: in vivo, Wistar rats
Source text: (§1) Rats in each group were anesthetized by chloral hydrate, decollated rapidly and the brains were taken out. The brain tissue around the hole was cut and procured, weighed precisely, and made into a 10% tissue homogenate using a glass homogenizer in an ice bath environment with physiological saline as homogenized medium, the supernatant of which was taken to be determined the NE activity using ELISA method.

[3] = test system: cerebral hemorrhage in rats induced by collagenase; assay: ICH model induced by collagenase: NO in brain tissue by nitrate reductase method; type: in vivo, Wistar rats
Source text: as §1, with “brain take” for “brains”, “content of NO by nitrate reductase” for “NE activity using ELISA”

[4] = test system: infective brain edema of rats (pertussis bacteria liquid); assay: infective cerebral edema: IL-1β, TNF-α (ELISA) and NO (Griess) in cerebral tissue; type: in vivo, SD rats; conditions: rat cerebral tissue, 4 h
Description: Determine the content of IL-1β, TNF-α and NO by using ELISA and Griess method.
Model preparation was same as that of example 4. Piperphentonamine acetate group was intraperitoneally injected with 0.5 mg/kg daily for 2 days 48 h before the injection of pertussis bacterial liquid. Rats in each group were decollated after being injected with bacterial liquid or saline 4 h. ELISA method and Griess method were used to measure the content of IL-1β, TNF-α and NO in brain homogenate of infectious brain edema model of rats.

[5] = test system: ischemia reperfusion injury of mouse brain; assay: SOD activity, MDA and GSH content of brain homogenate after cerebral ischemia reperfusion; type: in vivo, Kunming mice
Description: Ischemia reperfusion method in the mouse and the administration method are the same as above. After ischemia reperfusion is completed, executing by decollating, removing the brain and making homogenate by phosphate buffer in 0° C., determining the activity of SOD by pyrogallol autoxidation method, the content of MDA by TBA method, and the content of GSH by DTNB method, quantitate the protein by Coomassie brilliant blue method.

[6] = test system: cerebral hemorrhage in rats induced by collagenase; assay: ICH model induced by collagenase: brain water content (BWC); type: in vivo, Wistar rats
Description: Animals are randomly divided into five groups: sham operation 24 h group; cerebral hemorrhage (Intracerebral Haemorrhage, ICH)+physiological saline group (model); ICH+piperphentonamine hydrochloride (JBTA, 2 mg/kg) group, called as high dose group (h); ICH+piperphentonamine hydrochloride (JBTA, 0.5 mg/kg) group, called as low dose group (1); ICH+nimodipine (Nim, 0.5 mg/kg) group. The last four groups are divided into 4 h, 8 h, 12 h, 24 h as four time subgroups respectively. Physiological saline solution, piperphentonamine hydrochloride and nimodipine are intravenously injected from rat tail before the ICH model is established for 30 minutes, once a day. Injecting slowly, the total amount of drug liquid is controlled in 1 ml/200 g body weight: physiological saline solution also being administered in 1 ml/200 g body weight. Each group has 7 Wistar rats.
Observing the influence of piperphentonamine hydrochloride on the brain water content of intracerebral hemorrhage in rats in 4 h, 8 h, 12 h, 24 h, the animals of the different groups is anesthetized by chloral hydrate at predetermined time point, and decollating and taking the brain rapidly, putting the brain tissue on a filter paper wetted by saline solution to prevent water evaporating. Removing the leptomeninges and blood, cutting and taking the front half portion of brain tissue centered by the hole for the insertion needle, weighing precisely (accurate to 0.1 mg). It is controlled in 5 min to take the brain to finish weigh. Then putting in 95° C. constant temperature oven for 24 h, weighing the dry weight. The brain water content is calculated according to Blliot formula: BWC=(wet weight−dry weight)/wet weight×100%.
Divide the animals randomly into five groups: sham operation (sham) 24 h group; ICH+normal saline group (model); ICH+piperphentonamine maleate (4 mg/kg) group, namely high dose group (h); ICH+piperphentonamine maleate (2 mg/kg) group, namely low dose group (1); ICH+nimodipine (0.5 mg/kg) group. The last four groups were divided into four time subgroup of 4 h, 8 h, 12 h and 24 h. Physiological solution, piperphentonamine maleate and nimodipine were injected intravenous from rat tail vein 30 minutes before the ICH model made, once a day. Inject slowly, the total amount of drug liquid was controlled in 1 ml/200 g body weight: normal saline was also administered in 1 ml/200 g body weight. Each group has seven Wistar rats.

[7] = test system: cultured cerebral neurons; assay: NMDA induces neuron injury in primary cultured neurons; type: cell-based, rat; conditions: 12 h; for mortality: NMDA 50 mmol/L

Question: With `CN(CCC(=O)/C=C/c1ccc(O)cc1)CCc1ccc2c(c1)OCO2.Cl` [piperphentonamine hydrochloride, Piperphentonamine hydrochloride] as the compound, how does the “The percentage of infarction area occupied the entire coronal plane (%)” value ([1]; 1 mg/kg iv) read?
Answer: 19.78 ± 2.61 %

Question: What about the “The percentage of infarction area occupied the entire coronal plane (%)” value ([1]; 5 mg/kg iv) of the same compound?
Answer: 16.55 ± 2.32 %

Question: What about the NE ([2]; 2 mg/kg, ICH rat brain tissue homogenate) of the same compound?
Answer: 1.61 ± 0.044^a ng/ml

Question: And the “brain tissue NE activity” value ([2]; high and low dose group (2, 0.5 mg/kg))?
Answer: could decrease the brain tissue NE activity significantly

Question: What about the NO ([3]; 2 mg/kg, ICH rat brain tissue) of the same compound?
Answer: 1.65 ± 0.03^Δ μmol/g pro

Question: And the “NO content in brain tissue” value ([3]; high and low dose groups (2, 0.5 mg/kg))?
Answer: could decrease the NO content in brain tissue

Question: And the IL-1β [4]?
Answer: 318.4 ± 43.8^2)3) pg/g

Question: What about the NO [4] of the same compound?
Answer: 86.1 ± 5.9^2)3) nmol/g

Question: And the TNF-α [4]?
Answer: 499.7 ± 134.9^2)3) pg/g

Question: And the GSH ([5]; 20 mg/kg)?
Answer: 10.34 ± 3.17 mg/g pr

Question: And the MDA ([5]; 20 mg/kg)?
Answer: 4.48 ± 1.03 nmol/g pr

Question: And the SOD ([5]; 20 mg/kg)?
Answer: 0.34 ± 0.02 Ku/g pr

Question: And the GSH ([5]; 40 mg/kg)?
Answer: 13.1 ± 4.34 mg/g pr

Question: And the MDA ([5]; 40 mg/kg)?
Answer: 3.74 ± 0.67 nmol/g pr

Question: And the SOD ([5]; 40 mg/kg)?
Answer: 0.37 ± 0.02 Ku/g pr

Question: And the GSH ([5]; 80 mg/kg)?
Answer: 14.77 ± 4.61 mg/g pr

Question: And the MDA ([5]; 80 mg/kg)?
Answer: 3.53 ± 0.76 nmol/g pr

Question: And the SOD ([5]; 80 mg/kg)?
Answer: 0.42 ± 0.04 Ku/g pr

Question: And the “brain water content (%)” value ([6]; 0.5 mg/kg iv 30 min before ICH, 4 h)?
Answer: 79.90 ± 0.84^Δ %

Question: What about the “brain water content (%)” value ([6]; 0.5 mg/kg iv 30 min before ICH, 8 h) of the same compound?
Answer: 81.19 ± 0.78^ΔΔ %

Question: And the “brain water content (%)” value ([6]; 0.5 mg/kg iv 30 min before ICH, 12 h)?
Answer: 82.70 ± 0.76^ΔΔ %

Question: And the “brain water content (%)” value ([6]; 0.5 mg/kg iv 30 min before ICH, 24 h)?
Answer: 84.98 ± 0.65^ΔΔ %

Question: What about the “brain water content (%)” value ([6]; 2 mg/kg iv 30 min before ICH, 4 h) of the same compound?
Answer: 79.29 ± 0.69 %

Question: What about the “brain water content (%)” value ([6]; 2 mg/kg iv 30 min before ICH, 8 h) of the same compound?
Answer: 79.73 ± 0.53^Δ** %

Question: And the “brain water content (%)” value ([6]; 2 mg/kg iv 30 min before ICH, 12 h)?
Answer: 80.75 ± 0.19^ΔΔ** %

Question: And the “brain water content (%)” value ([6]; 2 mg/kg iv 30 min before ICH, 24 h)?
Answer: 82.38 ± 0.73^ΔΔ** %

Question: And the mortality ([7]; drug 10 mmol/L, hydrochloride)?
Answer: 38%

Question: What about the mortality ([7]; drug 10 mmol/L, listed as JBTA2, hydrochloride) of the same compound?
Answer: 38%

Question: What about the mortality ([7]; drug 100 mmol/L, hydrochloride) of the same compound?
Answer: 24%

Question: What about the mortality ([7]; drug 100 mmol/L, listed as JBTA2, hydrochloride) of the same compound?
Answer: 24%

Question: What about the “morphological change of culture neuron” value ([7]; drug 10) of the same compound?
Answer: the degree of cell injury reduces significantly

From US8916607B2, “Use of piperphentonamine or salts thereof in manufacture of medicaments for treating brain diseases” (Guangzhou Municipal Zhongwei Biotechnology Limited Company, priority 2009, dated 2014)
